Reference: patent US20130310352A1, “DEXAMETHASONE COMBINATION THERAPY” (priority 2010, published 2013)
pIC50: −log10 of the molar value.

Experiments:
[1] = tested on: CD138− stromal cells (BMSCs); test: Cytotoxicity toward stromal cells in primary MM coculture; assay type: cell-based, human; settings: 0 to 1 mM, 24 hours, versus primary MM cells
Experimental: MM cell lines ARP1, ARK, MM.1S, MM.1R and U266 were maintained in RPMI-1640 medium supplemented with 10% fetal bovine serum, 100 U/ml penicillin and 100 μg/ml streptomycin at 37° C. and 5% CO2 Primary MM cells and MM BMSCs were isolated from bone marrow aspirates of myeloma patients. PBMCs were obtained from healthy volunteers. […] Compound A was dissolved in DMSO at 10 mM as stock solution. […] FITC conjugated Annexin V was obtained from Invitrogen.
Compound A-induced cell apoptosis was detected by Annexin V binding assay as previously described (Zheng Y, Cai Z, Wang S, et al. Macrophages are an abundant component of myeloma microenvironment and protect myeloma cells from chemotherapy drug-induced apoptosis. Blood. 2009; 114 (17):3625-3628). Briefly, MM cells were cultured in 24-well plates and treated with 0 to 1 mM final concentrations of compound A for 24 or 72 hours. The cells were washed twice with cold PBS and resuspended in Annexin V binding buffer (Invitrogen). MM cells were stained with FITC-conjugated Annexin V and propidium iodide (PI) for 15 min at room temperature. Apoptotic cells were determined as Annexin V positive cells.
To evaluate compound A function in primary MM cells, the study was extended to CD138+ primary MM cells freshly isolated from myeloma patients. […]

[2] = tested on: MM cell lines ARP1, MM.1S and MM.1R; test: Apoptosis with or without IL-6 addition; assay type: cell-based, human; settings: 10 μM compound A, rhIL-6
Experimental: IL-6 is an important survival cytokine for MM (Klein B, Zhang X G, Jourdan M, et al. Interleukin-6 is the central tumor growth factor in vitro and in vivo in multiple myeloma. Eur Cytokine Netw. 1990; 1 (4):193-201; Gado K, Domjan G, Hegyesi H, Falus A. Role of INTERLEUKIN-6 in the pathogenesis of multiple myeloma. Cell Biol Int. 2000; 24 (4):195-209). […] For this purpose, different MM cell lines ARP1, MM.1S and MM.1R were cultured with or without recombinant hIL-6 (final concentration […]) and treated with or without 10 μM compound A for 2 days. As a positive control, MM.1S cells were treated with 40 μg/ml of dexamethasone with or without hIL-6 addition for the same period of time.
MM cell lines ARP1, MM.1S and MM.1R were cultured with 10 μM compound A for 3 days. rhIL-6 were added to final concentration of 5 ng/ml. As a positive control, MM.1S cells were treated with 40 μg/ml dexamethasone in the presence of 5 ng/ml of rhIL6 for the same time. Cells apoptosis rate was measured by annexin V staining. (B). Same MM cells were co-cultured with or without MM BMSC, and treated with 10 μM of compound A for 1 day. As a positive control, MM.1S cells were cocultured with or without BMSC and treated with 40 μg/ml dexamethasone for 1 day. CD138+ MM cells apoptosis rate was measured by Annexin V staining.

[3] = tested on: caspase 3, caspase 9 and PARP in ARP1, MM.1S and MM.1R; test: Western blotting, caspases activation; assay type: cell-based, human; settings: 10 μM
Experimental: (§1) MM cell lines ARP1, ARK, MM.1S, MM.1R and U266 were maintained in RPMI-1640 medium supplemented with 10% fetal bovine serum, 100 U/ml penicillin and 100 μg/ml streptomycin at 37° C. and 5% CO2 Primary MM cells and MM BMSCs were isolated from bone marrow aspirates of myeloma patients. PBMCs were obtained from healthy volunteers. The study was approved by the Institutional Review Board at The University of Texas M.D. Anderson Cancer Center. Anti-caspase-3, caspase-9, PARP, Bim, XIAP, cyclin D1, pp 70S6K (Thr389) and p27(Kip1) antibodies were purchased from Cell Signaling. Anti-bcl-2, Bc1-XL, Akt, pAkt (Thr 308), pAkt (Ser 473), p70S6K and β-actin antibodies were purchased from Santa Cruz. Compound A was dissolved in DMSO at 10 mM as stock solution. Dexamethasone and Propidium iodide (PI) were purchased from Sigma-Aldrich. Recombinant human IL6 was purchased from R&D Systems. FITC conjugated Annexin V was obtained from Invitrogen.
To elucidate compound A induced MM cell apoptosis, MM cell lines ARP1, MM.1S and MM.1R, treated with or without compound A for 24 hours, were assessed by Western blotting analysis.
(A). […] Compound A induced activation and cleavage of caspase-3, caspase-9 and PARP is shown. (B). Same MM cells treated with 10 μM compound A were lysed for western blotting. (C) RP1 cells were treated with 10 μM compound A for 1, 6, 12 and 24 hours.

[4] = tested on: normal PBMCs from healthy volunteers; test: Apoptosis of normal PBMCs; assay type: cell-based, human; settings: 24 hours
Experimental: as §1
Apoptotic cells were determined as Annexin V positive cells.
To examine whether compound A induces normal PBMCs apoptosis, normal PBMCs from different healthy volunteers were incubated with 0 to 1 mM compound A for 24 hours. Cells apoptosis rate were measured as described above. […] Thus, these findings indicate that compound A has low cytotoxicity toward resting PBMCs.
(A). Five MM cell lines ARP1, ARK, MM.1S, MM.1R and U266 were cultured in the presence of 0 to 1 mM compound A. Cells were harvested after 1 day or 3 days of treatment. Compound A induced MM cell apoptosis were measured by Annexin V staining as described in Materials and Methods. (B). Same MM cell lines were treated with 0 to 1 mM compound A for 1 or 3 days. Cell growths were assessed by MTS assay. (C). Representative histograms of primary MM cells treated with compound A. (D). Data from 3 patients showing a dose-dependent induction of apoptosis in freshly isolated primary MM cells. Cells were treated with different doses of compound A for 1 day. (E). PBMCs isolated from 3 healthy volunteers were treated with compound A for 1 day.

U266 [5] = test: Annexin V apoptosis assay; assay type: cell-based, human
Experimental: Apoptotic cells were determined as Annexin V positive cells. […] Compound A induced MM cells apoptosis were measured as described in Materials and Methods.

[6] = tested on: BimS, XIAP and Bc1-XL in MM cells; test: Immunoblotting, apoptosis regulatory factors; assay type: cell-based, human; settings: 10 μM compound A
Experimental: as §1
Next, the expressions of apoptosis regulatory factors was tested. […] Bim is a pro-apoptotic factor belonging to Bc1-2 family (O'Connor L, Strasser A, O'Reilly L A, et al. Bim: a novel member of the Bc1-2 family that promotes apoptosis. EMBO J. 1998; 17 (2):384-395). Bim has three major isoforms generated by alternative splicing, BimEL, BimL and BimS. The shortest form BimS is the most cytotoxic isoform (Weber A, Paschen S A, Heger K, et al. BimS-induced apoptosis requires mitochondrial localization but not interaction with anti-apoptotic Bel-2 proteins. J. Cell Biol. 2007; 177 (4):625-636). Previous work has shown that the transcription of Bim is regulated by the forkhead transcription factor FKHR-L1, a downstream effector of PI3K (Dijkers P F, Medema R H, Lammers J W, Koenderman L, Coffer P J. Expression of the pro-apoptotic Bc1-2 family member Bim is regulated by the forkhead transcription factor FKHR-L1. Curr Biol. 2000; 10 (19):1201-1204). […] Thus, compound A induced MM cell apoptosis may be caused by up-regulation of cytotoxic BimS and down-regulation of anti-apoptotic XIAP and Bc1-XL.
(A). […]

U266 [7] = test: MTS cell growth assay; assay type: cell-based; settings: Homo sapiens, U-266, U266, 24 hours treatment, read-out: IC50 (concentration at 50% inhibition), cell growth
Experimental: as §1
(§2) All experiments were performed in triplicate.

MM.1R = test: MTS cell growth assay; assay type: cell-based; settings: Homo sapiens, 24 hours treatment, read-out: IC50 (concentration at 50% inhibition), cell growth
Experimental: as §1, §2

[8] = 24 hours, ARP1, MM.1S and MM.1R

Nc1cc(C(F)(F)F)c(-c2cc(N3CCOCC3)nc(N3CCOCC3)n2)cn1 [compound A, 5-(2,6-di-morpholin-4-yl-pyrimidin-4-yl)-4-trifluoromethyl-pyridin-2-ylamine]
cytotoxicity toward CD138− stromal cells [1]: significantly lower cytotoxicity
effect of IL6 addition on compound A induced MM cell apoptosis [2]: did not affect
caspase 3 cleavage [3, 8]: cleavage
caspase 9 cleavage [3, 8]: cleavage
PARP cleavage ([3]; all tested cell lines): detected
toxicity toward normal PBMCs ([4]; 0 to 1 mM): comparably low toxicity
PBMC apoptosis ([4]; 10 μM): less than 40%
PBMC apoptosis ([4]; 100 μM): less than 40%
sensitivity to compound A induced apoptosis compared to other MM cell lines (U266 [5]): less sensitive
Bc1-XL expression [6]: down-regulated
BimS expression [6]: up-regulated
XIAP expression [6]: down-regulated
pIC50 (U266 [7]): 4.00 to 5.00
pIC50 (MM.1R): 5.00 to 6.00
